# Reference: US20250099517A1, “Use of Lactobacillus reuteri Y7 strain for prevention or treatment of ocular diseases” (Taipei Medical University, priority 2023, published 2025)
# Experiments:
# [1] = food intakes of mice during the experiment; format: in vivo, C57BL/6 mice; details: for food intakes of mice: LU, lutein 6.15 mg/kg bw oral daily, blue light, Mean±S.E.M., n=6
# Description: In the present invention, six-week-old male C57BL/6 mice were placed in a breeding cage in which the following feeding conditions were kept: temperature, 22±2° C., humidity, 55±5%, and the light-dark cycle of 12-hour light and 12-hour dark. The mice were fed with fodders at the adaptive phase for one week; general solid fodders for test animals were administered to mice of the control group and mice during the adaptive phase. The initial day was defined as Day 0 when the adaptive phase for the mice was over. From the next week, the mice were interfered with samples under test and exposed to blue light. During the experiments, the mice were monitored for weights as well as water intakes and checked for any physiological change. The data for experiments through electroretinography (ERG), fndus photography (FP), fundus fluorescein angiograph (FFA), spectral-domain optical coherence tomography (SD-OCT) and intraocular pressure (IOP) were collected at Day 0, Day 21 and Day 35, as shown in FIG. 1 for the experimental process. The C57BL/6 mice, which weighed between 23 and 25 g, were divided into seven groups randomly. In each group, the six mice induced by blue light successfully were incorporated in experiments. The samples dissolved in deuterium-depleted water (DDW) were fed to mice through oral tubes once a day. The groups were named and introduced as follows: • (1) Solvent not classified group (NC): The mice were fed with 0.2 ml deuterium-depleted water (DDW) through tubes; • (2) Negative control group (Blue light (BL)): The mice were fed with 0.2 ml deuterium-depleted water (DDW) through tubes and exposed to blue light; • (3) Low-dosage Y7 probiotics group […]): The mice were fed with low-dosage Y7 probiotics (probiotic counts of 1.0×10^8 CFU/ml dissolved in 0.2 ml DDW per day) and exposed to blue light; • (4) High-dosage Y7 probiotics group […]): The mice were fed with high-dosage Y7 probiotics (probiotic counts of 1.0×10^9 CFU/ml dissolved in 0.2 ml DDW per day) and exposed to blue light; • (5) Positive control group (lutein (LU)): The mice were fed with lutein and exposed to blue light. The recommended human dosage of lutein is 30 mg. The mouse cage (48×25×20 cm) placed inside a stainless ventilated box was equipped with blue light boards as blue light sources around and above. In the experiment of animals exposed to blue light, six-week-old mice staying in the mouse cage were fed with drinking water as well as fodders and exposed to 400 Lux blue light illumination under the light-dark cycle of 12-hour light and 12-hour dark. The experiment was aimed at causing mice' late dry macular disease induced by chronic light injuries for simulating a human being's macular disease after long-term exposure to short-wavelength blue light from 3C products in daily life. All data written as the form of mean±standard error of the mean (S.E.M.) were used in the statistical analysis through the one-way ANOVA and the Newman-Keuls test; p<0.05 denoted statistical difference. In the experiment, the software for the statistical analysis was Graph pad Prism (v9.2.0). The data such as food intake, water intake, body weight, organ weight and other clinical examination data were analyzed with the one-way ANOVA.
# total retinal thickness = assay: H&E sections of retinal tissues, total retinal thickness by ImageJ; format: in vivo, C57BL/6 mice; details: Day 35, p<0.05
# Description: The C57BL/6 mice, which weighed between 23 and 25 g, were divided into seven groups randomly. In each group, the six mice induced by blue light successfully were incorporated in experiments. The samples dissolved in deuterium-depleted water (DDW) were fed to mice through oral tubes once a day. The groups were named and introduced as follows: • (1) Solvent not classified group (NC): The mice were fed with 0.2 ml deuterium-depleted water (DDW) through tubes; • (2) Negative control group (Blue light (BL)): The mice were fed with 0.2 ml deuterium-depleted water (DDW) through tubes and exposed to blue light; • (3) Low-dosage Y7 probiotics group […]): The mice were fed with low-dosage Y7 probiotics (probiotic counts of 1.0×10^8 CFU/ml dissolved in 0.2 ml DDW per day) and exposed to blue light; • (4) High-dosage Y7 probiotics group […]): The mice were fed with high-dosage Y7 probiotics (probiotic counts of 1.0×10^9 CFU/ml dissolved in 0.2 ml DDW per day) and exposed to blue light; • (5) Positive control group (lutein (LU)): The mice were fed with lutein and exposed to blue light. The recommended human dosage of lutein is 30 mg. The mouse cage (48×25×20 cm) placed inside a stainless ventilated box was equipped with blue light boards as blue light sources around and above. In the experiment of animals exposed to blue light, six-week-old mice staying in the mouse cage were fed with drinking water as well as fodders and exposed to 400 Lux blue light illumination under the light-dark cycle of 12-hour light and 12-hour dark. The experiment was aimed at causing mice' late dry macular disease induced by chronic light injuries for simulating a human being's macular disease after long-term exposure to short-wavelength blue light from 3C products in daily life. The eyes of a mouse sacrificed after the experiment on Day 35 were taken out for H&E stains. The section of a retinal tissue was checked for any change in each layer of a sacrificed mouse's retina and compared with experimental results of SD-OCT. The images for a fraction of retina below the pupil vertically and nearest to optic nerves were captured from a section through the 200× magnification, as shown in FIG. 6a.
food intakes of mice ([1]; Day7),food intakes of mice ([1]; Day14),food intakes of mice ([1]; Day21),food intakes of mice ([1]; Day28),food intakes of mice ([1]; Day35),"food intakes compared with the BL group ([1]; mouse, in vivo)",Molecule,total retinal thickness compared with the BL group (total retinal thickness; LU lutein group),total retinal thickness compared with the NC group (total retinal thickness; LU lutein group),total retinal thickness compared with the BL group (total retinal thickness; Y7H high-dosage group),total retinal thickness compared with the NC group (total retinal thickness; Y7H high-dosage group),total retinal thickness compared with the BL group (total retinal thickness; Y7L low-dosage group),total retinal thickness compared with the NC group (total retinal thickness; Y7L low-dosage group)
5.71 ± 1.17,4.17 ± 1.15,5.04 ± 1.82,5.33 ± 2.17,4.43 ± 2.12,,"CC1=C[C@H](O)CC(C)(C)[C@H]1/C=C/C(C)=C/C=C/C(C)=C/C=C/C=C(C)/C=C/C=C(C)/C=C/C1=C(C)C[C@@H](O)CC1(C)C [lutein, reference compound]",significant difference,decreased significantly,,,,
,,,,,significantly higher,Lactobacillus reuteri Y7 [Y7 probiotics],,,significant difference,decreased significantly,significant difference,decreased significantly
